The source of these data is patent publication US20020045254A1, “Established cells” (priority 1998, published 2002).

In series [1] the target is T1, GLUT-1 transporter (Rattus norvegicus, UniProt P11167).
T1 construct: endogenous in cells; host or cells: TR-iBRB2, immortalized rat retinal capillary endothelial cells (tsA58 SV40 large T transgenic rat)
T1 sequence (P11167 1-492): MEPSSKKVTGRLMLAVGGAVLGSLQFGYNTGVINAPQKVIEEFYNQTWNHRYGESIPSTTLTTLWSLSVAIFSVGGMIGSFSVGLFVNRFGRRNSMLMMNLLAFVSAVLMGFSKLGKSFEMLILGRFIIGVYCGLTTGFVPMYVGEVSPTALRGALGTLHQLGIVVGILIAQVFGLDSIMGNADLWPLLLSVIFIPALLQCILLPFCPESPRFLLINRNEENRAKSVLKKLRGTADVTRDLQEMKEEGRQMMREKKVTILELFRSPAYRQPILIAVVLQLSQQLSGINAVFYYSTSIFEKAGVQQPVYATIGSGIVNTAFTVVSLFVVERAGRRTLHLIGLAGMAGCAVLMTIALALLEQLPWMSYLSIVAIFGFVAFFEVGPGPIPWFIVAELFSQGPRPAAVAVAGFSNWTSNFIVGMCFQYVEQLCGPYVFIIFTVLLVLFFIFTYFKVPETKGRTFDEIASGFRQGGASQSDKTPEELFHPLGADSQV
Briefly: 3-OMG uptake by TR-iBRB2 cells (glucose transport capability). In kind it is in vitro ADME. The protocol: The 3-OMG uptake was determined according to the following procedure. After removing medium by aspiration, 0.2 mL of an uptake buffer containing 232 kBq/mL of [^3H]3-OMG heated to 37° C. was added. […] After 10 seconds, the uptake buffer (1) was removed and the residue was washed with the uptake buffer (1) at 4° C. The same procedure was repeated except for changing the period of time before removing the uptake buffer (1) to 20 seconds, 30 seconds, or one minutes. The cells were solubilized in 1 mL of PBS containing 1% Triton X-100 and the radioactivity was measured using a liquid scintillation counter to confirm the linearity of the 3-OMG uptake capability. As a result, an uptake time of 20 seconds was set.
Next, the substrate concentration dependency of the 3-OMG uptake capability was examined. After washing the cells with the uptake buffer (1) heated to 37° C., 0.2 mL of the uptake buffer (1) containing 462 kBq/well of [^3H]3-OMG was added. Solutions containing 3-OMG at different concentrations were prepared by adding non-labeled 3-OMG to the uptake buffer (1) to make final concentrations of 0, 0.5, 1, 5, 10, 20, 30, and 50 mM. […] Next, the cells were solubilized overnight in 1 mL of PBS containing 1% Triton X-100 and the radioactivity was measured using a liquid scintillation counter.

Series [2] has as its target T2, GLUT-1 transport carrier (Rattus norvegicus, UniProt P11167).
T2 construct: endogenous in cells; host or cells: TR-BBB1, TR-BBB5, TR-BBB6, TR-BBB11, TR-BBB13, immortalized rat brain capillary endothelial cells
T2 sequence (P11167 1-492): T1 sequence (P11167 1-492)
Briefly: 3-OMG uptake by TR-BBB cell lines (glucose transport capability). The class given is in vitro ADME.

Series [3] has as its system TR-CSFB3 cells. The series is described as follows: Inhibition of L-proline uptake of TR-CSFB3 cells by Na+-free (choline) buffer and ouabain. In kind it is cell-based, rat. The note with it: 30 minutes. The protocol:
The L-proline uptake into the isolated choroid plexus is dependent on Na^+. […] However, because the experiment must be carried out under Na^+-free conditions, all Na^+ in the uptake buffer (1) was replaced with coline. […] Both reactions were carried out for 30 minutes. It was confirmed that L-proline uptake was inhibited as much as 98% under Na^+-free conditions. It was confirmed that 56% of L-proline uptake was inhibited by 1 mM ouabain. As a result, the L-proline uptake of TR-CSFB3 cells was confirmed to be Na^+-dependent.

Series [4] relates to rabbit choroid plexus. The conditions noted are these: read-out: Km value from rabbit choroid plexus; L-proline, Coben L. A. et al. (1972); cited from earlier work.
Series [5] deals with TR-CSFB3 cells.
Experimental: The concentration dependency of the resulting cells on the L-proline transport was examined to determine the L-proline transport capability.
After the uptake reaction for 30 minutes and washing three times with PBS, 1 mL of PBS containing 1% Triton X-100 was added and the mixture was allowed to stand overnight to solubilize the cells. The radioactivity was measured using a liquid scintillation counter (LS-6500 made by Beckmann Co.).

Usually Km stands for the substrate concentration at which the rate is half of its maximum. On to 3-o-methyl-D-glucose [3-OMG], for which the “maximum velocity constant (Vmax) of 3-OMG uptake” value in series [1] (20 seconds uptake, 37° C., 0-50 mM 3-OMG) turned out to be 45 nmol/min/mg protein. In series [1] (read-out: Michaelis constant (Km) of 3-OMG uptake, 20 seconds uptake, 37° C., 0-50 mM 3-OMG), the Km came to 5600 µM. Moreover, the Initial uptake rate came to 8.12 ± 0.62 μ1/min/mg protein in series [2] (TR-BBB1 cells); 10.1 ± 1.32 μ1/min/mg protein in series [2] (TR-BBB5 cells); 7.07 ± 0.92 μ1/min/mg protein in series [2] (TR-BBB6 cells); 10.2 ± 0.62 μ1/min/mg protein in series [2] (TR-BBB11 cells); 8.96 ± 0.50 μ1/min/mg protein in series [2] (TR-BBB13 cells). Further, the “initial uptake rate of [3H]3-OMG” value in series [2] (span over TR-BBB1, TR-BBB5, TR-BBB6, TR-BBB11 and TR-BBB13 cells) is recorded as 7.07-10.2 μl/min/mg protein.
As usually defined, the inhibition is the percentage by which the read-out fell short of the control. Read a high inhibition as a response far below the control. On to `C[C@@H]1O[C@@H](O[C@H]2C[C@@H](O)[C@]3(CO)[C@H]4[C@H](O)C[C@]5(C)[C@@H](C6=CC(=O)OC6)CC[C@]5(O)[C@@H]4CC[C@]3(O)C2)[C@H](O)[C@H](O)[C@H]1O` [ouabain], for which, in series [3] (Rattus norvegicus, 0.5 h, 1 mM ouabain), the inhibition at 1000 µM came to 56%.
In the case of `O=C(O)[C@@H]1CCCN1` [L-proline], the Km in series [4] was 1100 µM; in series [5] (read-out: Km of L-proline uptake, 30 minutes uptake, 0.005-20 mM L-proline), 1500 µM. Further, the “inhibition of L-proline uptake under Na+-free conditions” value in series [3] (all Na+ in uptake buffer replaced with choline) is 98%. Moreover, the “Vmax of L-proline uptake” value in series [5] (30 minutes uptake, 0.005-20 mM L-proline) stood at 2.4 nmol/min/mg protein.
